Laboratory results taken from US5807535A, “Metal complexes of hydroxyaryl containing aminocarboxylic acid chelating agents” (Australian Nuclear Science & Technology Organisation, priority 1992, dated 1998).
Where two headings read alike, the source gives them in different places.

Tests used:
[1] = Biodistribution of 67Ga complexes in mice; format: in vivo, balb/c mice
Procedure: To ligand (50 μL, 10 mg/mL, 0.2 M NaOAc, […]) was added ^67 Ga citrate (18.5 MBq) and the resultant mixture diluted to 1 mL (0.2 M NaOAc, pH 7). The pH was adjusted to 12 with 1 M NaOH (20 μL) and heated at 40° C. for 40 min. The final volume was adjusted (to 5 mL) with saline and sterilised by filtering through a 0.22 μm filter.
Each animal was injected via tail vein with ^67 Ga complex (100 μL, ~3.7×10^5 Bq). Animals were sacrificed at various time intervals (5 animals per time point/6 time points). Data are illustrated in FIG. 26-30 and in Tables 13-17.
Each ^67 Ga-ligand complex has been evaluated in balb/c mice. […] (see FIG. 26-30).

[2] = Biodistribution of 99mTc complexes in rats; format: in vivo, Australian Albino Wistar Rats; conditions: rat, rats; for tissue uptake at 0.5 min: 30 sec; for tissue uptake at 0.05 h: 3 min
Procedure: A typical method of radiolabelling of the chelator was achieved by dissolving the chelator in a basic solution of saline. The pH was then adjusted to approx. 6 with HCl. Excess stannous chloride was added to the resultant solution followed by one equivalent volume of sodium ^99m TcO4 (10-50 mCi/ml). Final concentration of the chelator was approx. 1 mg/ml. The efficacy of labelling was determined by ITLC-SG. For each product only one main radiochemical species was observed. Each complex was diluted to 15 μCi/100 μl with saline. […] (See FIGS. 1A and 1B).
Selected data from biodistribution results of technetium-99m complexes of No. 1, No. 2 and No 4 in the liver, kidney and blood at 3 minutes is tabulated below.

[3] = blood, read-out: biodistribution blood
[4] = bone, read-out: biodistribution bone
[5] = brain, read-out: biodistribution brain
[6] = eyes, read-out: biodistribution eyes
[7] = heart, read-out: biodistribution heart
[8] = kidneys, read-out: biodistribution kidneys
[9] = liver, read-out: biodistribution liver
[10] = lungs, read-out: biodistribution lungs
[11] = muscle, read-out: biodistribution muscle
[12] = pancreas, read-out: biodistribution pancreas
[13] = skin, read-out: biodistribution skin
[14] = spleen, read-out: biodistribution spleen
[15] = stomach, read-out: biodistribution stomach
[16] = tail, read-out: biodistribution tail
[17] = thymus, read-out: biodistribution thymus
[18] = thyroid, read-out: biodistribution thyroid
[19] = total git, read-out: biodistribution tot GIT

Nc1ccc(O)c(NC(=O)CN(CCN(CC(=O)O)CC(=O)Nc2cc(N)ccc2O)CC(=O)O)c1 [Compound 5]
biodistribution urine ([1]; 1 min): 6.30 % ID
biodistribution urine ([1]; 3 min): 8.94 % ID
biodistribution urine ([1]; 5 min): 15.34 % ID
biodistribution urine ([1]; 10 min): 14.23 % ID
biodistribution urine ([1]; 30 min): 7.76 % ID
biodistribution urine ([1]; 120 min): 3.55 % ID
tissue uptake at 0.5 min [2, 3]: 4.92 %ID/g
tissue uptake at 1 min [2, 3]: 4.22 %ID/g
tissue uptake at 0.05 h [2, 3]: 3.26 %ID/g
tissue uptake at 5 min [2, 3]: 3.13 %ID/g
tissue uptake at 10 min [2, 3]: 2.59 %ID/g
tissue uptake at 0.5 min [2, 4]: 0.37 %ID/g
tissue uptake at 1 min [2, 4]: 0.45 %ID/g
tissue uptake at 0.05 h [2, 4]: 0.42 %ID/g
tissue uptake at 5 min [2, 4]: 0.37 %ID/g
tissue uptake at 10 min [2, 4]: 0.36 %ID/g
tissue uptake at 0.5 min [2, 5]: 0.2 %ID/g
tissue uptake at 1 min [2, 5]: 0.22 %ID/g
tissue uptake at 0.05 h [2, 5]: 0.16 %ID/g
tissue uptake at 5 min [2, 5]: 0.17 %ID/g
tissue uptake at 10 min [2, 5]: 0.14 %ID/g
tissue uptake at 0.5 min [2, 6]: 0.17 %ID/g
tissue uptake at 1 min [2, 6]: 0.23 %ID/g
tissue uptake at 0.05 h [2, 6]: 0.19 %ID/g
tissue uptake at 5 min [2, 6]: 0.18 %ID/g
tissue uptake at 10 min [2, 6]: 0.18 %ID/g
tissue uptake at 0.5 min [2, 7]: 1.81 %ID/g
tissue uptake at 1 min [2, 7]: 1.62 %ID/g
tissue uptake at 0.05 h [2, 7]: 1.24 %ID/g
tissue uptake at 5 min [2, 7]: 1.15 %ID/g
tissue uptake at 10 min [2, 7]: 1.06 %ID/g
tissue uptake at 0.5 min [2, 8]: 4.35 %ID/g
tissue uptake at 1 min [2, 8]: 5.7 %ID/g
tissue uptake at 0.05 h [2, 8]: 4.7 %ID/g
tissue uptake at 5 min [2, 8]: 6.04 %ID/g
tissue uptake at 10 min [2, 8]: 3.61 %ID/g
tissue uptake at 0.5 min [2, 9]: 1.11 %ID/g
tissue uptake at 1 min [2, 9]: 0.97 %ID/g
tissue uptake at 0.05 h [2, 9]: 0.83 %ID/g
tissue uptake at 5 min [2, 9]: 0.79 %ID/g
tissue uptake at 10 min [2, 9]: 0.69 %ID/g
tissue uptake at 0.5 min [2, 10]: 1.66 %ID/g
tissue uptake at 1 min [2, 10]: 1.69 %ID/g
tissue uptake at 0.05 h [2, 10]: 1.31 %ID/g
tissue uptake at 5 min [2, 10]: 1.25 %ID/g
tissue uptake at 10 min [2, 10]: 1.17 %ID/g
tissue uptake at 0.5 min [2, 11]: 0.25 %ID/g
tissue uptake at 1 min [2, 11]: 0.3 %ID/g
tissue uptake at 0.05 h [2, 11]: 0.27 %ID/g
tissue uptake at 5 min [2, 11]: 0.25 %ID/g
tissue uptake at 10 min [2, 11]: 0.23 %ID/g
tissue uptake at 0.5 min [2, 12]: 0.8 %ID/g
tissue uptake at 1 min [2, 12]: 0.73 %ID/g
tissue uptake at 0.05 h [2, 12]: 0.55 %ID/g
tissue uptake at 5 min [2, 12]: 0.56 %ID/g
tissue uptake at 10 min [2, 12]: 0.43 %ID/g
tissue uptake at 0.5 min [2, 13]: 0.31 %ID/g
tissue uptake at 1 min [2, 13]: 0.38 %ID/g
tissue uptake at 0.05 h [2, 13]: 0.43 %ID/g
tissue uptake at 5 min [2, 13]: 0.41 %ID/g
tissue uptake at 10 min [2, 13]: 0.46 %ID/g
tissue uptake at 0.5 min [2, 14]: 0.83 %ID/g
tissue uptake at 1 min [2, 14]: 0.98 %ID/g
tissue uptake at 0.05 h [2, 14]: 0.83 %ID/g
tissue uptake at 5 min [2, 14]: 0.83 %ID/g
tissue uptake at 10 min [2, 14]: 0.72 %ID/g
tissue uptake at 0.5 min [2, 15]: 0.47 %ID/g
tissue uptake at 1 min [2, 15]: 0.42 %ID/g
tissue uptake at 0.05 h [2, 15]: 0.36 %ID/g
tissue uptake at 5 min [2, 15]: 0.37 %ID/g
tissue uptake at 10 min [2, 15]: 0.24 %ID/g
tissue uptake at 0.5 min [2, 16]: 0.22 %ID/g
tissue uptake at 1 min [2, 16]: 0.14 %ID/g
tissue uptake at 0.05 h [2, 16]: 0.17 %ID/g
tissue uptake at 5 min [2, 16]: 0.15 %ID/g
tissue uptake at 10 min [2, 16]: 0.19 %ID/g
tissue uptake at 0.5 min [2, 17]: 0.63 %ID/g
tissue uptake at 1 min [2, 17]: 0.56 %ID/g
tissue uptake at 0.05 h [2, 17]: 0.45 %ID/g
tissue uptake at 5 min [2, 17]: 0.54 %ID/g
tissue uptake at 10 min [2, 17]: 0.39 %ID/g
tissue uptake at 0.5 min [2, 18]: 1.85 %ID/g
tissue uptake at 1 min [2, 18]: 2.43 %ID/g
tissue uptake at 0.05 h [2, 18]: 1.59 %ID/g
tissue uptake at 5 min [2, 18]: 1.73 %ID/g
tissue uptake at 10 min [2, 18]: 1.71 %ID/g
tissue uptake at 0.5 min [2, 19]: 0.35 %ID/g
tissue uptake at 1 min [2, 19]: 0.34 %ID/g
tissue uptake at 0.05 h [2, 19]: 0.31 %ID/g
tissue uptake at 5 min [2, 19]: 0.29 %ID/g
tissue uptake at 10 min [2, 19]: 0.27 %ID/g
